Source: publication PMC11325555, “Interaction of Bisphenol A and Its Analogs with Estrogen and Androgen Receptor from Atlantic Cod (Gadus morhua)” (Environmental Science & Technology, 2024)
pEC50, pIC50: −log10 of the molar value.

Tests used:
[1] = biological target: T1, Atlantic cod estrogen receptor alpha (gmEra) LBD (Gadus morhua, UniProt U5ILH7); assay: Luciferase reporter gene assay, gmEra agonism (estrogenic activity) in transfected COS-7 cells; settings: for gmEra REP50 (relative potency EC50, EC50-bisphenol A/EC50-bisphenol X): relative to BPA
T1 sequence (U5ILH7 170-455): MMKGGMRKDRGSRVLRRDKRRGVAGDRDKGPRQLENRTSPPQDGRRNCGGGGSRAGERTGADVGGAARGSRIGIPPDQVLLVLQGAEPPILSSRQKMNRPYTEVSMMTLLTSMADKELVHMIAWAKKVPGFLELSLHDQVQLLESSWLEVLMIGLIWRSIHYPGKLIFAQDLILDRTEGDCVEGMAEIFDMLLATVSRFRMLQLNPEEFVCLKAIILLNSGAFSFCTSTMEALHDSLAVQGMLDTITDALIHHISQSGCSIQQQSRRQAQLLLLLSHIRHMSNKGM
Description: (§1) Ligand activation of gmEra and gmAra was studied with a luciferase reporter gene assay in COS-7 cells transiently transfected with the pCMX-GAL4(DBD)-gmEra(LBD) or pCMX-GAL4(DBD)-gmAra(LBD) plasmid by using the TransIT-LT1 reagent (TransIT-LT1 Transfection Reagent, Mirus). Cells were seeded into 96-well plates (5000 cells/well) and incubated for 24 h before cotransfection with the plasmid mixture (100 ng/well). The plasmid mixture contained GAL4-UAS luciferase reporter plasmid (tk-(MH100)x4 luc), the pCMX-GAL4(DBD)-gmEra(LBD) or pCMX-GAL4(DBD)-gmAra(LBD) receptor plasmids (2:1 reporter:receptor plasmid mass ratio), and a plasmid constitutively producing the β-galactosidase enzyme used for normalization of transfection efficiency (pCMV- β-Gal). […] The maximum DMSO/methanol concentrations in the exposure wells were 0.5% (v/v) in DMEM medium without phenol red (Sigma-Aldrich). After exposure, cells were lysed, and luciferase and beta-galactosidase activities were measured as luminescence and absorbance (420 nm) after the addition of luciferin and ONPG substrates, respectively, using an Enspire Multimode plate reader (PerkinElmer, Waltham, Massachusetts, USA).
Luciferase reporter gene assays were established with COS-7 cells transiently producing the LBD of gmEra (Figure S1) for evaluating the estrogenic potential of 12 bisphenols.
COS-7 cells transiently transfected with gmEra-LBD were exposed to EE2 (open circles), BPA (black circles), and 11 different BPA analogs (red squares and as indicated) at increasing concentrations. Responses are presented as mean fold activation in luciferase activity in comparison to solvent-exposed cells ± SEM from three independent experiments with three technical replicates (n = 9). The dose–response curves were created using nonlinear regression and the four parameter logistic fit in Graphpad Prism v.9. For comparison, the dose–response curve of BPA (black line) is indicated together with each individual BP tested (red line). *p < 0.05 versus solvent control by one-way ANOVA and Dunnett’s multiple comparison post hoc test.

[2] = biological target: T1, Atlantic cod estrogen receptor alpha (gmEra) LBD; assay: Luciferase reporter gene assay, gmEra antagonism (antiestrogenic activity), coexposure with 3 nM EE2; type: cell-based; settings: for antiestrogenic effect on gmEra, result in words: coexposure with EE2 (3 nM, EC20)
Description: as §1
To investigate potential antiestrogenic effects, COS-7 cells transiently expressing gmEra LBD were exposed to the 12 bisphenols in binary mixtures with a fixed concentration of EE2 (3 nM, corresponding to EC20) (Figure 2 and Table 1).
(§2) The dose–response curves were created using nonlinear regression and the four-parameter logistic fit in Graphpad Prism v.9. *p < 0.05 versus solvent control by ANOVA and Dunnett’s multiple comparison post hoc test.

COS-7 cells = assay: Cytotoxicity toward COS-7 cells (resazurin and CFDA-AM assays); settings: 24 h; for concentration that affected COS-7 cell viability: binary combination with 0.003 μM EE2
Excerpt: The cytotoxicity of the test compounds toward COS-7 cells was monitored by measuring the metabolic activity and membrane integrity through the conversion of resazurin and 5-carboxyfluorescein diacetate acetoxymethyl ester (CFDA-AM), respectively, as described previously by Pérez-Albaladejo et al.[54] […]
used as a negative control.
Figure S2. Assessing metabolic activity (resazurin) and cell membrane integrity (CFDA-AM) in COS-7 cells after BP exposures. COS-7 cells were exposed to three concentrations of each BP, as well as three concentrations […]
exposed at 37 °C and 5 % CO2 for 24 hours. Cytotoxicity is indicated by a reduction in the fluorescent signal (denoted as % Cell survival) relative to the solvent control (DMSO, dotted line) adjusted to 100 %. A reduction in cell viability exceeding 20 % is generally regarded as cytotoxic (indicated with a red dotted line) (ISO, I. 2009.
10993–5: 2009 Biological evaluation of medical devices—part 5: tests for in vitro cytotoxicity. International Organization for Standardization, Geneva.).
(1 picture or pasted object on this page, not shown here)

[3] = tested on: Er-mediated synthesis of Vtg in Atlantic cod PCLS; assay: Vitellogenin ELISA in media of exposed precision-cut liver slices (PCLS); type: cell-based, Atlantic cod (Gadus morhua); settings: 96 h; for concentration at which maximum Vtg levels were observed: 1, 10, 100 μM tested; for Vtg synthesis in PCLS, result in words: 1, 10, 100 μM bisphenols or 0.1, 1, 10 nM EE2, Vtg in media by ELISA
Description: PCLS culturing and exposure assays were performed essentially as described previously,[42],[56] with the modifications described below. Juvenile Atlantic cod were killed by a blow to the head, and the liver was dissected out and placed in a Petri dish containing ice-cold PCLS buffer (122 mM NaCl, 4.8 mM KCl, 1.2 mM MgSO4, 11 mM Na2HPO4, 3.7 mM NaHCO3, […]). The liver was then cut into small tissue blocks (approximately 3 cm long, 2 cm wide, and 1–3 cm high) and kept in ice-cold complete culture medium (L-15 medium supplemented with 10% FBS and 1× antibiotic-antimycotic solution). For slicing, the tissue block was fixed on the specimen plate of a Leica vibrating blade microtome VT1200 (Leica, Wetzlar, Germany) using Loctite Super Glue (Clas Ohlson, Bergen, Norway), and 250 μm thick tissue slices were cut (under ice-cold PCLS buffer) and kept in a Petri dish with ice-cold complete culture medium. Using a sterile razor blade, the tissue slices (2 × 3 cm) were then divided into smaller pieces (approximately 4 × 4 mm) and distributed into a 12-well cell culture plate (Sarstedt, Nümbrecht, Germany), each well containing 6 slices and 2 mL of complete culture medium. The PCLS were preincubated at 10 °C for 2 h before exposure. After preincubation, 1 mL of the medium was removed from each well and replaced by 1 mL of fresh complete culture medium containing 2x the final desired concentration and incubated at 10 °C for 96 h with shaking at 50 rpm. […] At the end of the exposure, slices were collected with tweezers and rinsed briefly in cold PBS. Excess PBS was removed by carefully touching a dry surface of the culture plate with the slice 4 times before measuring the weight in a preweighed cryotube. The slices were then snap-frozen in liquid N2 and stored at −80 °C. The media was also sampled and stored at −80 °C for viability (LDH) assay and vitellogenin ELISA.
Vitellogenin (Vtg) in media collected from exposed PCLS was quantified using the Atlantic Cod Vitellogenin ELISA kit (Biosense Laboratories AS, Bergen, Norway) according to manufacturer’s instructions. Vtg was quantified in 100 μL of undiluted media and normalized to the weight of the liver tissue. Statistical analysis of ELISA data was performed with GraphPad Prism Software version 9 (GraphPad Prism, La Jolla, CA, USA) by using one-way ANOVA followed by Dunnett’s test (for normally distributed data) or Friedman test followed by Dunn’s test (for non-normally distributed data), as described previously for PCLS experiments (Yadetie et al.[42]).
Figure 5 Relative vitellogenin production in Atlantic cod precision-cut liver slices (PCLS) exposed to bisphenols and EE2. PCLS were exposed to 1, 10, and 100 μM bisphenols or 0.1, 1, and 10 nM EE2, for 96 h. EE2 was included as positive control for activation of the gmEra signaling pathway. Levels of induced Vtg in the PCLS media were measured using ELISA (Cod Vitellogenin ELISA kit, Biosense Laboratories AS). The data represents mean ± SEM of fold change (compared to solvent control) of Vtg levels from 4 to 10 fish. n = 8–10 for all bisphenols except for BADGE (n = 4). Asterisks denote significant changes (p < 0.05) compared to solvent control.

[4] = biological target: T2, Atlantic cod androgen receptor alpha (gmAra) LBD (Gadus morhua, UniProt D5FIC7); assay: Luciferase reporter gene assay, gmAra agonism (androgenic activity) in transfected COS-7 cells
T2 sequence (D5FIC7 409-718): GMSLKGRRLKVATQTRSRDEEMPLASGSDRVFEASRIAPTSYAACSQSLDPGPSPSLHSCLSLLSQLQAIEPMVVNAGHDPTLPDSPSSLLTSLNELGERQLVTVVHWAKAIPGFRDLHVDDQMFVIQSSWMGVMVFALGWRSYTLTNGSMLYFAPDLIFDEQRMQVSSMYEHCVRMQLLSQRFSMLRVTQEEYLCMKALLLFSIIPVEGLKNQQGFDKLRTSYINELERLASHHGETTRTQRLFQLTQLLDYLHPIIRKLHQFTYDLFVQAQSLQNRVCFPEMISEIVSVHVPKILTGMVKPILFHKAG
Description: as §1
Figure 3 Androgenic activity of bisphenols. COS-7 cells were transiently transfected with gmAra LBD and exposed individually to 12 bisphenol analogs at increasing concentrations. […] The dose–response curves were created using nonlinear regression and the four-parameter logistic fit in Graphpad Prism v.9. For comparison, the dose–response curve of BPA (black line) is indicated together with each individual BP tested (red line). *p < 0.05 versus solvent control by one-way ANOVA and Dunnett’s multiple comparison post hoc test.

[5] = biological target: T2, Atlantic cod androgen receptor alpha (gmAra) LBD; assay: Luciferase reporter gene assay, gmAra antagonism (antiandrogenic activity), coexposure with 5 nM testosterone; type: cell-based; settings: for effect on testosterone-mediated gmAra activity, result in words: BPs 0.003–50 μM with 5 nM testosterone; for pIC50: gmAra IC50, in the presence of 5 nM testosterone (EC20)
Description: as §1, §2

[6] = gmEra EC50, four-parameter logistic fit, 24 h exposure
[7] = antiandrogenic reporter assay conditions (with testosterone), highest concentration used

Row | SMILES | pEC50 [1, 6] | antiestrogenic effect on gmEra, result in words [2] | effect on testosterone-mediated gmAra activity, result in words [5] | pIC50 [5] | Vtg synthesis in PCLS, result in words [3] | also measured
1 | Oc1ccc(C(c2ccc(O)cc2)(C(F)(F)F)C(F)(F)F)cc1 [BPAF] | 6.64 | no antiestrogenic effects | – | – | – | cytotoxic concentration in COS-7 cells (COS-7 cells; African green monkey): 50 µM; concentration at which maximum Vtg levels were observed [3]: 10 µM
2 | CCC(C)(c1ccc(O)cc1)c1ccc(O)cc1 [BPB] | 5.80 | no antiestrogenic effects | – | – | – | –
3 | Oc1ccc(C(=C(Cl)Cl)c2ccc(O)cc2)cc1 [BPC2] | 6.70 | – | – | – | – | pIC50 [2]: 7.22
4 | CC(c1ccc(O)cc1)c1ccc(O)cc1 [BPE] | 4.93 | no antiestrogenic effects | significantly decrease the testosterone-mediated Ara-activity | 6.34 | induced the highest Vtg-levels ex vivo | gmEra REP50 (relative potency EC50, EC50-bisphenol A/EC50-bisphenol X) [1]: 0.2; maximal fold induction ([4]; COS-7, monkey, 24 h, read-out: gmAra Emax): 1.2
5 | Oc1ccc(Cc2ccc(O)cc2)cc1 [BPF] | 5.42 | no antiestrogenic effects | – | – | induced the highest Vtg-levels ex vivo | –
6 | CC(C)c1cc(C(C)(C)c2ccc(O)c(C(C)C)c2)ccc1O [BPG] | – | – | significantly decrease the testosterone-mediated Ara-activity | 6.70 | able to induce Vtg synthesis in PCLS | cytotoxic concentration in COS-7 cells (COS-7 cells; [7]): 50 µM; concentration that affected COS-7 cell viability (COS-7 cells; highest concentration used): 50 µM
7 | O=S(=O)(c1ccc(O)cc1)c1ccc(O)cc1 [BPS] | 4.08 | no antiestrogenic effects | – | – | – | –
8 | CC1CC(C)(C)CC(c2ccc(O)cc2)(c2ccc(O)cc2)C1 (stereo not drawn) [BPTMC] | – | – | significantly decrease the testosterone-mediated Ara-activity | 5.76 | – | cytotoxic concentration in COS-7 cells (COS-7 cells; [7]): 50 µM; concentration that affected COS-7 cell viability (COS-7 cells; highest concentration used): 50 µM; concentration at which maximum Vtg levels were observed [3]: 10 µM
9 | Oc1ccc(C2(c3ccc(O)cc3)CCCCC2)cc1 [BPZ] | – | – | significantly decrease the testosterone-mediated Ara-activity | 6.06 | only moderate and not statistically significant | effect on testosterone-mediated gmAra activity at lower concentrations, result in words ([5]; lower concentrations used (3–80 nM) with 5 nM testosterone): significant increases in gmAr activity; cytotoxic concentration in COS-7 cells (COS-7 cells; [7]): 50 µM; concentration that affected COS-7 cell viability (COS-7 cells; highest concentration used): 50 µM; concentration at which maximum Vtg levels were observed [3]: 10 µM
10 | C#C[C@]1(O)CC[C@H]2[C@@H]3CCc4cc(O)ccc4[C@H]3CC[C@@]21C [EE2, 17α-Ethynylestradiol, reference compound] | 8.15 | – | – | – | increased Vtg-levels in the media in a dose-dependent manner | maximal fold induction ([1]; COS-7, monkey, 24 h, read-out: gmEra Emax): 80; potency toward gmEra relative to BPA (times more potent) ([1]; EE2 compared with BPA): ~10^3; pEC50 ([1]; gmEra EC50, value given in text): 8.17; gmEra REP50 (relative potency EC50, EC50-bisphenol A/EC50-bisphenol X) [1]: 271
11 | C[C@]12CC[C@H]3[C@@H](CCC4=CC(=O)CC[C@@]43C)[C@@H]1CC[C@@H]2O [T, testosterone, reference compound] | – | – | – | – | – | gmAra Emax ([4]; fold activation in luciferase activity vs solvent control, 24 h exposure, a = plateau not reached): 42.1 fold activation
12 | CC(C)C(=O)Nc1ccc([N+](=O)[O-])c(C(F)(F)F)c1 [flutamide, reference compound] | – | – | – | ~6.15 | – | –
